Results from US20200405696A1, “INHIBITORS OF INDOLEAMINE 2,3-DIOXYGENASE AND/OR TRYPTOPHAN 2,3-DIOXYGENASE” (IDORSIA PHARMACEUTICALS LTD, priority 2018, published 2020).

What was measured:
[1] = molecular target: T1, Recombinant full-length human IDO1 (Homo sapiens, UniProt P14902); experiment: IDO1 enzymatic assay (NFK quantified by LCMS); type: biochemical; details: 2 nM enzyme, 5 μM L-tryptophan, pH6.5, 30 minutes pre-incubation at RT; mean values when measured multiple times; read-out: hIDO activity (IC50 in nM)
T1 construct: Recombinant full-length human IDO1 with a N-terminal hexahistidine tag; hexahistidine (His6) (N); made in house; host or cells: E. coli
Method in brief: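 IC50 comes from four-parameter logistic fits of duplicate data, with NFK quantified by LCMS and normalized to L-Trp-(indole-d5). Compound (0.5 nM–10 μM) was preincubated 30 min at RT with 2 nM E. coli-expressed IDO1 before a 30 min reaction with 5 μM tryptophan in pH 6.5 buffer containing ascorbate and methylene blue.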

[2] = molecular target: T2, Recombinant human TDO comprising amino acids 19-407 (Homo sapiens, UniProt P48775); experiment: TDO2 enzymatic assay (NFK quantified by LCMS); type: biochemical; details: 15 nM enzyme, 200 μM L-tryptophan, pH7, 30 minutes pre-incubation at RT; mean values when measured multiple times; read-out: hTDO activity (IC50 in nM)
T2 construct: Recombinant human TDO comprising amino acids 19-407 with a N-terminal hexahistidine tag; hexahistidine (His6) (N); made in house; host or cells: E. coli
Method in brief: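 NFK formed over 30 min at RT from 200 μM L-tryptophan was measured by LCMS, normalized to d5-tryptophan, after compound (0.5 nM–10 μM, duplicates, 0.6% DMSO) was preincubated 30 min with 15 nM recombinant His-tagged TDO 19-407 in phosphate buffer pH 7. IC50 from four-parameter logistic fit; repeats averaged.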

T2 sequence (P48775 19-406 limits assumed): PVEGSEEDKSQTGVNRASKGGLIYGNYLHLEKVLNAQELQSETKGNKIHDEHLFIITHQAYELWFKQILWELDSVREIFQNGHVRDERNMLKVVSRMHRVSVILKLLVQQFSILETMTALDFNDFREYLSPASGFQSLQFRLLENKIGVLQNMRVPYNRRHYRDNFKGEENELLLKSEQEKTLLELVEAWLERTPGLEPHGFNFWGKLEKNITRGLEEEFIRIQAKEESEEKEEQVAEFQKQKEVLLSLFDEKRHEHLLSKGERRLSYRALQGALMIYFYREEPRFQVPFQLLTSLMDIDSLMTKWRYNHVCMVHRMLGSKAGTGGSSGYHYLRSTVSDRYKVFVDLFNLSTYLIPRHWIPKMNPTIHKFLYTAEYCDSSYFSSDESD
T1 sequence (P14902 whole entry): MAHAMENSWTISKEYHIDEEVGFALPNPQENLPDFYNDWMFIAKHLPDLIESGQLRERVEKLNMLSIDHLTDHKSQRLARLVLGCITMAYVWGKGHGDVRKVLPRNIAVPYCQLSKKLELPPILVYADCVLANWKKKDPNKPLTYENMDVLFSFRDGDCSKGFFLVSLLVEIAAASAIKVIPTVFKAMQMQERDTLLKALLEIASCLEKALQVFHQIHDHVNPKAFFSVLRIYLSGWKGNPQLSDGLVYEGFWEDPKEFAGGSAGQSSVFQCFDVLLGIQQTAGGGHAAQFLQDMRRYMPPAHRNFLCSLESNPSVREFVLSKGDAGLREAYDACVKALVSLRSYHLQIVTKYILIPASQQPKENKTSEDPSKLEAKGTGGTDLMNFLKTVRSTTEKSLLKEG

Row | Compound | IC50 [1] [nM] | IC50 [2] [nM]
1 | N#Cc1ccccc1-c1ccc(C(O)c2c(C3CC3)sc3cncn23)s1 (racemic) [Example 172, rac-2-{5-[(2-Cyclopropyl-imidazo[5,1-b]thiazol-3-yl)-hydroxy-methyl]-thiophen-2-yl}-benzonitrile] | 272 | 4080
2 | COc1ccc(-n2cc(C(O)c3c(C4CC4)sc4cncn34)nn2)cc1 (racemic) [Example 9, rac-(2-Cyclopropyl-imidazo[5,1-b]thiazol-3-yl)-[1-(4-methoxy-phenyl)-1H-[1,2,3]triazol-4-yl]-methanol] | 8.62 | > 10200
3 | OC(c1cn(-c2ccccc2C(F)(F)F)nn1)c1c(C2CC2)sc2cncn12 (racemic) [Example 29, rac-(2-Cyclopropyl-imidazo[5,1-b]thiazol-3-yl)-[1-(2-trifluoromethyl-phenyl)-1H-[1,2,3]triazol-4-yl]-methanol] | 163 | > 10200
4 | O=C(Nc1ccc(-n2cc(C(O)c3c(C4CC4)sc4cncn34)nn2)cc1)c1ccccc1 (racemic) [Example 189, rac-N-(4-{4-[(2-Cyclopropyl-imidazo[5,1-b]thiazol-3-yl)-hydroxy-methyl]-[1,2,3]triazol-1-yl}-phenyl)-benzamide] | 30.6 | > 10200
5 | CCc1sc2cncn2c1C(O)c1cn(-c2ccc(NC(N)=O)cc2)nn1 (racemic) [Example 131, rac-(4-{4-[(2-Ethyl-imidazo[5,1-b]thiazol-3-yl)-hydroxy-methyl]-[1,2,3]triazol-1-yl}-phenyl)-urea] | 22.3 | 2150
6 | Cn1nccc1-c1ccc(C(O)c2c(C3CC3)sc3cncn23)s1 (racemic) [Example 169, rac-(2-Cyclopropyl-imidazo[5,1-b]thiazol-3-yl)-[5-(2-methyl-2H-pyrazol-3-yl)-thiophen-2-yl]-methanol] | 60 | 2940
7 | OC(c1cn(-c2ccc(OCc3ccccn3)cc2)nn1)c1c(C2CC2)sc2cncn12 (racemic) [Example 203, rac-(2-Cyclopropyl-imidazo[5,1-b]thiazol-3-yl)-{1-[4-(pyridin-2-ylmethoxy)-phenyl]-1H-[1,2,3]triazol-4-yl}-methanol] | 1350 | > 10200
8 | CCOc1ncc(-n2cc(C(O)c3c(C4CC4)sc4cncn34)nn2)cc1Cl (racemic) [Example 74, rac-[1-(5-Chloro-6-ethoxy-pyridin-3-yl)-1H-[1,2,3]triazol-4-yl]-(2-cyclopropyl-imidazo[5,1-b]thiazol-3-yl)-methanol] | 24.3 | > 10200
9 | COc1cc(-n2cc(C(O)c3c(C4CC4)sc4cncn34)nn2)c(OC)nn1 (racemic) [Example 86, rac-(2-Cyclopropyl-imidazo[5,1-b]thiazol-3-yl)-[1-(3,6-dimethoxy-pyridazin-4-yl)-1H-[1,2,3]triazol-4-yl]-methanol] | 23.1 | > 10200
10 | O=c1[nH]c2ccc(-n3cc(C(O)c4c(C5CC5)sc5cncn45)nn3)cc2[nH]1 (racemic) [Example 194, rac-5-{4-[(2-Cyclopropyl-imidazo[5,1-b]thiazol-3-yl)-hydroxy-methyl]-[1,2,3]triazol-1-yl}-1,3-dihydro-benzoimidazol-2-one] | 70.4 | > 10200
11 | OC(c1cccc(-c2ccccc2)c1)c1c(C2CC2)sc2cncn12 (racemic) [Example 153, rac-Biphenyl-3-yl-(2-cyclopropyl-imidazo[5,1-b]thiazol-3-yl)-methanol] | 2320 | > 10200
12 | COc1ccc(-c2ccc(C(O)c3c(C4CC4)sc4cncn34)s2)cc1 (racemic) [Example 161, rac-(2-Cyclopropyl-imidazo[5,1-b]thiazol-3-yl)-[5-(4-methoxy-phenyl)-thiophen-2-yl]-methanol] | 257 | > 10200
13 | COc1ccc(-n2cc(C(O)c3c(C4(C)CC4)sc4cncn34)nn2)cc1 (racemic) [Example 44, rac-[1-(4-Methoxy-phenyl)-1H-[1,2,3]triazol-4-yl]-[2-(1-methyl-cyclopropyl)-imidazo[5,1-b]thiazol-3-yl]-methanol] | 38.8 | > 10200
14 | N#Cc1cc(-n2cc(C(O)c3c(C4CC4)sc4cncn34)nn2)ccc1OC(F)(F)F (racemic) [Example 199, rac-5-{4-[(2-Cyclopropyl-imidazo[5,1-b]thiazol-3-yl)-hydroxy-methyl]-[1,2,3]triazol-1-yl}-2-trifluoromethoxy-benzonitrile] | 73.1 | > 10200
15 | COc1cc(-n2cc(C(O)c3c(C4CC4)sc4cncn34)nn2)cnc1OC (racemic) [Example 80, rac-(2-Cyclopropyl-imidazo[5,1-b]thiazol-3-yl)-[1-(5,6-dimethoxy-pyridin-3-yl)-1H-[1,2,3]triazol-4-yl]-methanol] | 51.2 | > 10200

More lines, now with the values ahead:

Row | IC50 [1] [nM] | IC50 [2] [nM] | Compound
16 | 24.3 | > 10200 | NS(=O)(=O)c1ccc(-n2cc(C(O)c3c(C4CC4)sc4cncn34)nn2)cc1 (racemic) [Example 235, rac-4-{4-[(2-Cyclopropyl-imidazo[5,1-b]thiazol-3-yl)-hydroxy-methyl]-[1,2,3]triazol-1-yl}-benzenesulfonamide]
17 | 8.31 | > 10200 | Oc1ccc(-n2cc(C(O)c3c([C@@H]4C[C@@H]4F)sc4cncn34)nn2)cc1Cl (relative stereo) [Example 325, 2-Chloro-4-(4-{[2-(cis-2-fluoro-cyclopropyl)-imidazo[5,1-b]thiazol-3-yl]-hydroxy-methyl}-[1,2,3]triazol-1-yl)-phenol]
18 | 10.2 | > 10200 | CC(F)(F)c1sc2cncn2c1C(O)c1cn(-c2ccc(OCCCO)c(Cl)c2)nn1 (racemic) [Example 314, rac-3-[2-Chloro-4-(4-{[2-(1,1-difluoro-ethyl)-imidazo[5,1-b]thiazol-3-yl]-hydroxy-methyl}-[1,2,3]triazol-1-yl)-phenoxy]-propan-1-ol]
19 | 26.3 | > 10200 | CNS(=O)(=O)Nc1ccc(-n2cc(C(O)c3c(C4CC4)sc4cncn34)nn2)cc1 (racemic) [Example 256, rac-4-{4-[(2-Cyclopropyl-imidazo[5,1-b]thiazol-3-yl)-hydroxy-methyl]-[1,2,3]triazol-1-yl}-((N-methylsulfamoyl)amino)-benzene]
20 | 2.6 | 4710 | O=[N+]([O-])c1cc(-n2cc(C(O)c3c(C4CC4)sc4cncn34)nn2)ccc1O (racemic) [Example 248, rac-4-{4-[(2-Cyclopropyl-imidazo[5,1-b]thiazol-3-yl)-hydroxy-methyl]-[1,2,3]triazol-1-yl}-2-nitro-phenol]
21 | 38.5 | > 10200 | Cn1ncc2cccc(-n3cc(C(O)c4c(C5CC5)sc5cncn45)nn3)c21 (racemic) [Example 254, rac-(2-Cyclopropyl-imidazo[5,1-b]thiazol-3-yl)-[1-(1-methyl-1H-indazol-7-yl)-1H-[1,2,3]triazol-4-yl]-methanol]
22 | 23 | > 10200 | COc1ccc(-n2nnc(C(O)c3c([C@@H]4C[C@H]4F)sc4cncn34)c2F)cc1 (relative stereo) [Example 335, [2-(trans-2-Fluoro-cyclopropyl)-imidazo[5,1-b]thiazol-3-yl]-[5-fluoro-1-(4-methoxy-phenyl)-1H-[1,2,3]triazol-4-yl]-methanol]
